Common to all, as to assay type: biochemical
For one assay, the target named is T1, PI3K beta (Homo sapiens, UniProt P42338).
T1 construct: for the full-length p110-b subunit are generated and fused by overlapping PCR; His tag (C); made in house; host or cells: baculovirus; Tn5 (Trichoplusia ni) or TiniPro insect cells
Briefly: PI3 kinase assay (Kinase-Glo luminescence), PI3K beta. Conditions: Enzymatic Data; read-out: PI3K beta IC50 [umol]. In a few lines: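 PI3Kβ (25 nM, BV-949) with 10 μg/mL phosphatidylinositol in Tris pH 7.5/MgCl2/NaCl/CHAPS/DTT buffer; reaction started with 1 μM ATP, 60 min at room temperature. ATP depletion read by Kinase-Glo luminescence; 8-point dilutions, IC50 by four-parameter logistic fit.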
(In general: Kinase-Glo measures the ATP left after a reaction by luminescence.)

The target in another assay is T2, PI3K delta (Homo sapiens, UniProt O00329).
T2 construct: for the full-length p110-d subunit are generated and fused by overlapping PCR; His tag (C); made in house; host or cells: baculovirus; Tn5 (Trichoplusia ni) or TiniPro insect cells
T2 sequence (O00329 with tags, fused parts or gaps limits assumed): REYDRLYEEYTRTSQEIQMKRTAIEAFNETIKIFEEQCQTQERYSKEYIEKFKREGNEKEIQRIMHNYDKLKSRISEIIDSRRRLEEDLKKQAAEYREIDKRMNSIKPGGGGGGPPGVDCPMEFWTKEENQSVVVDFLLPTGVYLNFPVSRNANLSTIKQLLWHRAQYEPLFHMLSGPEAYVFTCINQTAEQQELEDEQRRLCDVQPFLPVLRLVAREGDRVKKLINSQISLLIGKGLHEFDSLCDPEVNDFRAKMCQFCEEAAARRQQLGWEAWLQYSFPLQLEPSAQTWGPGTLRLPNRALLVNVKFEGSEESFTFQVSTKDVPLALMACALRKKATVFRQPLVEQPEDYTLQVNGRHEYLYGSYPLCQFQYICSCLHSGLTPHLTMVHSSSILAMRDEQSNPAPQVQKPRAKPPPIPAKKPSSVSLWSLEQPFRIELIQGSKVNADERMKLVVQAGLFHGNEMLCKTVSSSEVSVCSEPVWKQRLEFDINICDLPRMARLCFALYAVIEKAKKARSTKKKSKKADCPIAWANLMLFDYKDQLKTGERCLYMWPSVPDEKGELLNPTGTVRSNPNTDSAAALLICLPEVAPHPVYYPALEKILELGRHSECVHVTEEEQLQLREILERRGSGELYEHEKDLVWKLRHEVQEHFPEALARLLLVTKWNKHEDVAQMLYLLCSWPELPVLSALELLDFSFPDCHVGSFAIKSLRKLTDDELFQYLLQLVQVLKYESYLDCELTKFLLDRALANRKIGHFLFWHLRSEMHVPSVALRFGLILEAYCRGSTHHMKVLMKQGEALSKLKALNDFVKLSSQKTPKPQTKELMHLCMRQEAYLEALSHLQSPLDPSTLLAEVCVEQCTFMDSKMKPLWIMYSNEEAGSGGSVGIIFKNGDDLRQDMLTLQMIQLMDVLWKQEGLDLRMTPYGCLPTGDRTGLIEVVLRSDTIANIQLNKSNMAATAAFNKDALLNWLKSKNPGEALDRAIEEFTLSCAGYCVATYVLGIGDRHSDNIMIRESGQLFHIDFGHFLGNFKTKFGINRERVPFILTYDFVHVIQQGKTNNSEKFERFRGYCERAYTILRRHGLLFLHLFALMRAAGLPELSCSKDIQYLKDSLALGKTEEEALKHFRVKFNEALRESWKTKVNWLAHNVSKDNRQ
Nature of the assay: PI3 kinase assay (Kinase-Glo luminescence), PI3K delta. The settings on record: Enzymatic Data; read-out: PI3K delta IC50 [umol]. In a few lines:
(§1)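 Recombinant PI3K constructs (alfa 10 nM, delta 10 nM, gamma 150 nM) with 1 μM ATP and 10 μg/mL phosphatidylinositol in Tris pH 7.5, MgCl2, NaCl, CHAPS, DTT; 60 min (alfa, delta) or 120 min (gamma) at room temperature. ATP depletion read by Kinase-Glo luminescence; IC50 from 4-parameter logistic fit over 8 concentrations.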

Another assay deals with T3, PI3K alfa (Homo sapiens, UniProt P42336).
T3 construct: for the p110-a subunit (with a deletion of the first 20 amino acids); His tag (C); made in house; host or cells: baculovirus; Tn5 (Trichoplusia ni) or TiniPro insect cells
T3 sequence (P42336 with tags, fused parts or gaps limits assumed): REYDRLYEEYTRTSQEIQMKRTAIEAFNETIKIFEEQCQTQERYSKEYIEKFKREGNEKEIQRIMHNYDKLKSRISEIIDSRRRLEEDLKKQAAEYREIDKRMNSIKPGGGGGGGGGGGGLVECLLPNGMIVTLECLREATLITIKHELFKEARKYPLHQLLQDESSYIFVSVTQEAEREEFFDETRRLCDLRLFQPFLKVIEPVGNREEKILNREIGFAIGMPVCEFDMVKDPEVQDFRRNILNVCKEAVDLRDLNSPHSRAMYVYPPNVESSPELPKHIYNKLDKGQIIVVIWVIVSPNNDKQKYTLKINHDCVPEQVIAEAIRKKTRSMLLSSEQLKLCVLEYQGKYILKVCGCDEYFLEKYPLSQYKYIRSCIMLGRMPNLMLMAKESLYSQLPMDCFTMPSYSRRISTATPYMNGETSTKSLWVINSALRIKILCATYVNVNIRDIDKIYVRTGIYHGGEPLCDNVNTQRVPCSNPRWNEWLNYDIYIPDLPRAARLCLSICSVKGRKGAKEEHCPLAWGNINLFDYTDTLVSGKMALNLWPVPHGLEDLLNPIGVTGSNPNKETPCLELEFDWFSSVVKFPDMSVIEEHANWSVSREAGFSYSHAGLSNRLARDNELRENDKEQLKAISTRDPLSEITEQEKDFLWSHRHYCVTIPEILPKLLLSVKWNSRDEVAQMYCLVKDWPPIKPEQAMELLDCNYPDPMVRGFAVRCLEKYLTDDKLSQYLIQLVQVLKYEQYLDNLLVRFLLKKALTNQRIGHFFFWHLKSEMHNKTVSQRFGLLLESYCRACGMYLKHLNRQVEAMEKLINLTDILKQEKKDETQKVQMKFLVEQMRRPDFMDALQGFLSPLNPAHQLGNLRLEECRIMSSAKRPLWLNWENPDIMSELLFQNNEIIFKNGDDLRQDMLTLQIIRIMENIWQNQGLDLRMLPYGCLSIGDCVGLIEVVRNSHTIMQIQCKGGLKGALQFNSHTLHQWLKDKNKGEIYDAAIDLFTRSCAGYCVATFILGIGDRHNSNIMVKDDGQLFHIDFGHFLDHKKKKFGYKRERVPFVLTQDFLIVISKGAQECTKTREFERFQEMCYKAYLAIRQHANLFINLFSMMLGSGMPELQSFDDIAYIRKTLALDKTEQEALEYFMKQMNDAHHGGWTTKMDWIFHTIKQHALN
Briefly: PI3 kinase assay (Kinase-Glo luminescence), PI3K alfa. Conditions: Enzymatic Data; read-out: PI3K alfa IC50 [umol]. The essentials:
as §1

In another assay the target is T4, PI3K gamma (Homo sapiens, UniProt P48736).
T4 construct: PI3Kγ BV-950 p110g(D144aa)-C-Term His Tag; His tag (C); made in house; host or cells: construct from the Roger Williams lab (MRC LMB) in pVL1393; baculovirus; Tn5 (Trichoplusia ni) or TiniPro insect cells
T4 sequence (P48736 144-1102 limits assumed): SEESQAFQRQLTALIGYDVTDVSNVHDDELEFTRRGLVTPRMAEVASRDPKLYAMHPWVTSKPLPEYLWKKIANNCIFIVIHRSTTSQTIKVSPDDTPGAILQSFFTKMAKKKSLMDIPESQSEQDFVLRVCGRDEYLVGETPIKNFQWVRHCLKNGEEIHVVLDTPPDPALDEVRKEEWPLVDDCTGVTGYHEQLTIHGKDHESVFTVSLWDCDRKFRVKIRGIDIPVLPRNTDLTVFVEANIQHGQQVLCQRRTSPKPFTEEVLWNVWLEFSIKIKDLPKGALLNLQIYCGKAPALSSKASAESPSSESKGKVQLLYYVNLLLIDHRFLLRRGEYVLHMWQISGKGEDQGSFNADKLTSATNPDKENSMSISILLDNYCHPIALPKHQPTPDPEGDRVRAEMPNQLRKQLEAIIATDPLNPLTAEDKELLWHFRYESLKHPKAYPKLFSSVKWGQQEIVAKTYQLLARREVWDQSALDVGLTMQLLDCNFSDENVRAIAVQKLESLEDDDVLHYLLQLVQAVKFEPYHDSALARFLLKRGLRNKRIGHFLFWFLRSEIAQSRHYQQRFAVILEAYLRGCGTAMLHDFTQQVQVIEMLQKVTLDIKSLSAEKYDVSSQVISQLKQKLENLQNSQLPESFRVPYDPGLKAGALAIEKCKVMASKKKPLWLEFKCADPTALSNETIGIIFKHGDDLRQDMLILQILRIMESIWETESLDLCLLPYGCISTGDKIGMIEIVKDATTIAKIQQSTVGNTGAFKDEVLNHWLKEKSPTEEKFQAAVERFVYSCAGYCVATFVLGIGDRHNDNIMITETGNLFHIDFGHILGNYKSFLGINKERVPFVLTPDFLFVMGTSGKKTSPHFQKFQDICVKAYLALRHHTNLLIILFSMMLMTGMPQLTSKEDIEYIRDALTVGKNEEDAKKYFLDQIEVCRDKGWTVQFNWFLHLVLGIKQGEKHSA
Nature of the assay: PI3 kinase assay (Kinase-Glo luminescence), PI3K gamma. The settings on record: Enzymatic Data; read-out: PI3K gamma IC50 [umol]. The essentials: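 Percent inhibition at eight concentrations (typically 10 to 0.003 […]) fitted to a four-parameter logistic model to give IC50. Reaction initiated with ATP; final ATP 1 μM and phosphatidylinositol 10 μg/mL; ATP consumption read by Kinase-Glo luminescence.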

T1 sequence (P42338 with tags, fused parts or gaps limits assumed): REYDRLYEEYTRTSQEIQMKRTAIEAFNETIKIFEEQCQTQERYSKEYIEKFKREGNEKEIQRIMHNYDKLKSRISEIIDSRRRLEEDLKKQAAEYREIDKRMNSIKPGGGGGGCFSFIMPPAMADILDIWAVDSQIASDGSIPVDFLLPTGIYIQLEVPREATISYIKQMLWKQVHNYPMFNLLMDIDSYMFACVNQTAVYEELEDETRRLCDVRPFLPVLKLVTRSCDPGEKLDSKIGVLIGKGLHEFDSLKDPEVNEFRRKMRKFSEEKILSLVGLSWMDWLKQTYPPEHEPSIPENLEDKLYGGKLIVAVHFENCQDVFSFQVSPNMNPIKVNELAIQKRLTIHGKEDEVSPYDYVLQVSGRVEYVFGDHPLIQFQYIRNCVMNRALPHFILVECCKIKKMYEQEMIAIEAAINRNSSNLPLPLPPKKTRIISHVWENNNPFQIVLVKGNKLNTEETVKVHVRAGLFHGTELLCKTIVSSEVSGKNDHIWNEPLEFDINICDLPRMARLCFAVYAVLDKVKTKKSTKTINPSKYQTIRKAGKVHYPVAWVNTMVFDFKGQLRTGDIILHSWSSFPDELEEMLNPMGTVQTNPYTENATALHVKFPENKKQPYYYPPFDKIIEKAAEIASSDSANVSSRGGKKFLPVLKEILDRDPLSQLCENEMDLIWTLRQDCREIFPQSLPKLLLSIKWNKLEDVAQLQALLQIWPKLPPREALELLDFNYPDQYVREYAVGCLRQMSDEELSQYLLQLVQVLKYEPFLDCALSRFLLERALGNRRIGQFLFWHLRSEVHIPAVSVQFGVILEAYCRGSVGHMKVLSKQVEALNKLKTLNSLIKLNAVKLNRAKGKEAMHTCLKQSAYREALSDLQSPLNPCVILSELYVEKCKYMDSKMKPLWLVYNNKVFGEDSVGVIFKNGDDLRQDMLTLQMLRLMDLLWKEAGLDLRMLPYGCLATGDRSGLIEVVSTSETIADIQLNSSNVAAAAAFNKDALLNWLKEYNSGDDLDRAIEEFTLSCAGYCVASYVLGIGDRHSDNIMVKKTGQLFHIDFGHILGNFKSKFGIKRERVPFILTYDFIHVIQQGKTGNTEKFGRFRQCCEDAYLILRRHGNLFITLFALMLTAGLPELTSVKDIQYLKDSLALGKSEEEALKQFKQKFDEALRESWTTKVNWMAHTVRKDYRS

As to `Nc1ncc(-c2cnc3ccc(-c4ccc(OCC5(NC(=O)C6CC6)COC5)cc4)nn23)cc1C(F)(F)F` [Example 146, Cyclopropanecarboxylic acid (3-{4-[3-(6-amino-5-trifluoromethyl-pyridin-3-yl)-imidazo[1,2-b]pyridazin-6-yl]-phenoxymethyl}-oxetan-3-yl)-amide], the IC50 came to 2540 nM at PI3K beta, 280 nM at PI3K delta, 54 nM on PI3K alfa and 1730 nM on PI3K gamma.

For the molecule `CCN(CC)CCn1cnc2cc(-c3cnc4ccc(-c5cnc(N)c(C(F)(F)F)c5)nn34)cnc21` [Example 149, 5-{3-[3-(2-Diethyl-amino-ethyl)-3H-imidazo [4,5-b]pyridin-6-yl]-imidazo [1,2-b]pyridazin-6-yl}-3-trifluoro-methyl-pyridin-2-ylamine], the IC50 at PI3K beta is 40 nM; on PI3K delta it was 14 nM; at PI3K alfa, 19 nM; at PI3K gamma, 404 nM.

Take `Nc1ncc(-c2ccc3ncc(-c4ccc(C(=O)NCCn5ccnc5)cc4)n3n2)cc1C(F)(F)F` [Example 150, 4-[6-(6-Amino-5-trifluoro-methyl-pyridin-3-yl)-imidazo [1,2-b]pyridazin-3-yl]-N-{2-imidazol-1-yl-ethyl)-benzamide]: the IC50 on PI3K beta is 132 nM; at PI3K delta, 31 nM; at PI3K alfa, 13 nM; at PI3K gamma it was greater than 9100 nM.

Consider `Nc1ncc(-c2ccc3ncc(-c4ccc(C(=O)NCCN5CCOCC5)cc4F)n3n2)cc1C(F)(F)F` [Example 151, 4-[6-(6-Amino-5-trifluoro-methyl-pyridin-3-yl)-imidazo [1,2-b]pyridazin-3-yl]-3-fluoro-N-(2-morpholin-4-yl-ethyl)-benzamide], for which the IC50 at PI3K beta was found to be 141 nM; on PI3K delta, 27 nM; on PI3K alfa it was 8 nM; on PI3K gamma, 946 nM.

On to `Nc1ncc(-c2ccc3ncc(-c4ccc(C(=O)NCCCN5CCOCC5)cc4F)n3n2)cc1C(F)(F)F` [Example 152, 4-[6-(6-Amino-5-trifluoro-methyl-pyridin-3-yl)-imidazo [1,2-b]pyridazin-3-yl]-3-fluoro-N-(3-morpholin-4-yl-propyl)-benzamide], for which the IC50 at PI3K beta turned out to be 40 nM; on PI3K delta it was 13 nM; at PI3K alfa it was 9 nM; on PI3K gamma, 485 nM.

For the molecule `Nc1ncc(-c2ccc3ncc(-c4ccc(C(=O)NCCN5CCS(=O)(=O)CC5)cc4F)n3n2)cc1C(F)(F)F` [Example 153, 4-[6-(6-Amino-5-trifluoro-methyl-pyridin-3-yl)-imidazo [1,2-b]pyridazin-3-yl]-N-[2-(1,1-dioxo-1lambda*6*- thio-morpholin-4-yl)-ethyl]-3-fluoro-benzamide], the IC50 is 271 nM at PI3K beta, 13 nM on PI3K delta, 8 nM on PI3K alfa and 1260 nM at PI3K gamma.

For the molecule `Nc1ncc(-c2ccc3ncc(-c4ccc(C(=O)NCCN5CCS(=O)(=O)CC5)cc4)n3n2)cc1C(F)(F)F` [Example 154, 4-[6-(6-Amino-5-trifluoro-methyl-pyridin-3-yl)-imidazo [1,2-b]pyridazin-3-yl]-N-[2-(1,1-dioxo-1lambda*6*- thio-morpholin-4-yl)-ethyl]-benzamide], the IC50 is 71 nM at PI3K beta, 6 nM at PI3K delta, 5 nM on PI3K alfa and 267 nM at PI3K gamma.

For the molecule `Nc1ncc(-c2cnc3ccc(-c4ccc5c(c4)OCO5)nn23)cc1C(F)(F)F` [Example 155, 5-(6-Benzo[1,3]dioxol-5-yl-imidazo [1,2-b]pyridazin-3-yl)-3-trifluoro-methyl-pyridin-2-ylamine], the IC50 at PI3K beta was 639 nM; at PI3K delta it was 174 nM; on PI3K alfa it was 70 nM; at PI3K gamma, greater than 9100 nM.

On to `Nc1ncc(-c2ccc3ncc(-c4ccc(C(=O)NCCn5ccnc5)cc4F)n3n2)cc1C(F)(F)F` [Example 156, 4-[6-(6-Amino-5-trifluoro-methyl-pyridin-3-yl)-imidazo [1,2-b]pyridazin-3-yl]-3-fluoro-N-(2-imidazol-1-yl-ethyl)-benzamide], for which the IC50 on PI3K beta was 73 nM; at PI3K delta, 14 nM; at PI3K alfa it was 8 nM; at PI3K gamma it was 400 nM.

For `Nc1ncc(-c2cnc3ccc(-c4ccc(OCCNC(=O)C5CC5)cc4)nn23)cc1C(F)(F)F` [Example 157, Cyclo-propane-carboxylic acid (2-{4-[3-(6-amino-5-trifluoro-methyl-pyridin-3-yl)-imidazo [1,2-b]pyridazin-6-yl]-phenoxy}-ethyl)-amide], the IC50 at PI3K beta came to 842 nM; at PI3K delta, 202 nM; on PI3K alfa it was 21 nM; on PI3K gamma, 2040 nM.

For the molecule `COc1cc(-c2cnc3ccc(-c4cnc(N)c(C(F)(F)F)c4)nn23)c(F)cc1C(=O)NCCN1CCOCC1` [Example 158, 4-[6-(6-Amino-5-trifluoro-methyl-pyridin-3-yl)-imidazo [1,2-b]pyridazin-3-yl]-5-fluoro-2-methoxy-N-(2-morpholin-4-yl-ethyl)-benzamide], the IC50 on PI3K beta is 388 nM; on PI3K delta, 113 nM; at PI3K alfa, 38 nM; on PI3K gamma it was greater than 9100 nM.

Regarding `COc1cc(-c2cnc3ccc(-c4cnc(N)c(C(F)(F)F)c4)nn23)c(F)cc1C(=O)NCCCN1CCOCC1` [Example 159, 4-[6-(6-Amino-5-trifluoro-methyl-pyridin-3-yl)-imidazo [1,2-b]pyridazin-3-yl]-5-fluoro-2-methoxy-N-(3-morpholin-4-yl-propyl)-benzamide], the IC50 on PI3K beta came to 36 nM; on PI3K delta, 13 nM; at PI3K alfa, 18 nM; at PI3K gamma it was 617 nM.

As to `COc1cc(-c2cnc3ccc(-c4cnc(N)c(C(F)(F)F)c4)nn23)c(F)cc1C(=O)NCCN1CCS(=O)(=O)CC1` [Example 160, 4-[6-(6-Amino-5-trifluoro-methyl-pyridin-3-yl)-imidazo [1,2-b]pyridazin-3-yl]-N-[2-(1,1-dioxo-1lambda*6*- thio-morpholin-4-yl)-ethyl]-5-fluoro-2-methoxy-benzamide], the IC50 was determined as 144 nM at PI3K beta, 39 nM on PI3K delta, 22 nM on PI3K alfa and 1260 nM on PI3K gamma.

Regarding `COc1cc(-c2cnc3ccc(-c4cnc(N)c(C(F)(F)F)c4)nn23)c(F)cc1C(=O)NCCn1ccnc1` [Example 161, 4-[6-(6-Amino-5-trifluoro-methyl-pyridin-3-yl)-imidazo (1,2-b]pyridazin-3-yl]-5-fluoro-N-(2-imidazol-1-yl-ethyl)-2-methoxy-benzamide], the IC50 amounted to 28 nM at PI3K beta, 9 nM at PI3K delta, 3 nM at PI3K alfa and 2400 nM at PI3K gamma.

With `CC(C)(C)OC(=O)N1CCC(Oc2ccc(-c3ccc4ncc(-c5cnc(N)c(C(F)(F)F)c5)n4n3)cc2)CC1` [Example 162, 4-{4-[3-(6-Amino-5-trifluoro-methyl-pyridin-3-yl)-imidazo [1,2-b]pyridazin-6-yl]-phenoxy}-piperidine-1-carboxylic acid tert-butyl ester], the IC50 at PI3K beta is greater than 9100 nM; on PI3K delta, greater than 9100 nM; on PI3K alfa, 379 nM; at PI3K gamma it was greater than 9100 nM.

As for `Nc1ncc(-c2cnc3ccc(-c4ccc(OCCCN5CCNC5=O)cc4)nn23)cc1C(F)(F)F` [Example 163, 1-(3-{4-[3-(6-Amino-5-trifluoro-methyl-pyridin-3-yl)-imidazo [1,2-b]pyridazin-6-yl]-phenoxy}-propyl)-imidazolidin-2-one], the IC50 at PI3K beta was found to be 908 nM; on PI3K delta it was 86 nM; on PI3K alfa, 69 nM; on PI3K gamma, 1890 nM.

On to `COc1cc(-c2ccc3ncc(-c4cnc(N)c(C(F)(F)F)c4)n3n2)ccc1OCCCN1CCNC1=O` [Example 164, 1-(3-{4-[3-(6-Amino-5-trifluoro-methyl-pyridin-3-yl)-imidazo [1,2-b]pyridazin-6-yl]-2-methoxy-phenoxy}-propyl)-imidazolidin-2-one], for which the IC50 at PI3K beta was 154 nM; on PI3K delta, 26 nM; at PI3K alfa, 6 nM; on PI3K gamma, 453 nM.

On to `Nc1ncc(-c2cnc3ccc(-c4ccc(OC5CCNCC5)cc4)nn23)cc1C(F)(F)F` [Example 165, 5-{6-[4-(Piperidin-4-yloxy)-phenyl]-imidazo [1,2-b]pyridazin-3-yl}-3-trifluoro-methyl-pyridin-2-ylamine], for which the IC50 at PI3K beta is 355 nM; at PI3K delta, 207 nM; on PI3K alfa, 131 nM; at PI3K gamma, 371 nM.
